# From patent US4162326A, “Insect control agents” (Stauffer Chemical Company, priority 1978, dated 1979)
# Test system: milkweed bug, Oncopeltus fasciatus (Dallas)
# Assay: anti-juvenile hormone activity and insecticidal activity against the milkweed bug (treated filter paper, second-instar nymphs)
# Format: in vivo
# Details: for LD50 (ED50 or LD50; compounds without asterisk, functioned as insecticides): insecticidal activity, mortality to at least 50% of the insects; for LD50 (ED50 or LD50; compounds without asterisk, functioned as insecticides) / ED50 (ED50 or LD50; compounds marked with asterisk, functioned as anti-juvenile hormone): second-instar nymphs, treated filter paper, 70° F, 3 to 4 weeks; for type of action (anti-juvenile hormone or general insecticide): statement in words on Table II; for ED50 (ED50 or LD50; compounds marked with asterisk, functioned as anti-juvenile hormone): anti-juvenile hormone activity (asterisk)
# Procedure: Compounds were tested for anti-juvenile hormone activity and insecticidal activity against the milkweed bug, Oncopeltus fasciatus (Dallas) as follows: The test compounds were diluted in acetone and impregnated into a filter paper disc by applying 0.6 milliliters and permitting the solvent to completely evaporate. Ten second-instar nymphs of Oncopeltus fasciatus (Dallas) were placed in a petri dish with the treated filter paper. The nymphs were supplied with milkweed seeds and water (by soaking dental cotton in a 4-dram vial cap). All petri dishes were stored at 70° F. The compounds were tested at concentrations ranging from 10 μg/cm^2 of filter paper downwards. The insecticidal or anti-juvenile hormone effect was determined when control insects had developed into normal adults, normally 3 to 4 weeks. The asterisk in the Table signifies that the indicated compound functioned as an anti-juvenilehormone. Compounds not marked with an asterisk functioned as insecticides,resulting in mortality to at least 50% of the insects at the indicated level.
structure (smiles),measurement,value
C#CCOc1ccc2c(c1)OC(C)(C)C=C2 [Compound 1],"LD50 (ED50 or LD50; compounds without asterisk, functioned as insecticides)",2 ug/cm^2
same,type of action (anti-juvenile hormone or general insecticide),function as general insecticides
CC#CCOc1ccc2c(c1)OC(C)(C)C=C2 [Compound 2],"ED50 (ED50 or LD50; compounds marked with asterisk, functioned as anti-juvenile hormone)",0.5 ug/cm^2
same,type of action (anti-juvenile hormone or general insecticide),function as anti-juvenile hormones
"C=CCOc1ccc2c(c1)OC(C)(C)C=C2 [Compound 3, 2,2-dimethyl-7-allyloxy-3-chromene]","ED50 (ED50 or LD50; compounds marked with asterisk, functioned as anti-juvenile hormone)",2 ug/cm^2
same,type of action (anti-juvenile hormone or general insecticide),function as anti-juvenile hormones
C#CCOc1cc2c(cc1OC)OC(C)(C)C=C2 [Compound 4],"LD50 (ED50 or LD50; compounds without asterisk, functioned as insecticides)",6 ug/cm^2
same,type of action (anti-juvenile hormone or general insecticide),function as general insecticides
C=CCOc1cc2c(cc1OC)OC(C)(C)C=C2 [Compound 5],"LD50 (ED50 or LD50; compounds without asterisk, functioned as insecticides)",8 ug/cm^2
same,type of action (anti-juvenile hormone or general insecticide),function as general insecticides
C#CCOc1cc2c(cc1OC)C=CC(C)(C)O2 [Compound 6],"ED50 (ED50 or LD50; compounds marked with asterisk, functioned as anti-juvenile hormone)",1 ug/cm^2
same,type of action (anti-juvenile hormone or general insecticide),function as anti-juvenile hormones
C=CCOc1cc2c(cc1OC)C=CC(C)(C)O2 [Compound 7],"ED50 (ED50 or LD50; compounds marked with asterisk, functioned as anti-juvenile hormone)",0.5 ug/cm^2
same,type of action (anti-juvenile hormone or general insecticide),function as anti-juvenile hormones
